According to patent publication US10118902B2 (Sanford Burnham Prebys Medical Discovery Institute, priority 2014, dated 2018):

molecular target: neurotensin receptor 1 (NTR1) (Homo sapiens (Human), UniProt P30989); assay: NTR1 dose response, high-content imaging beta-arrestin-GFP assay in NTR1-U2OS cells; type: cell-based; conditions: read-out: EC50
Sequence (P30989 whole entry, species assumed): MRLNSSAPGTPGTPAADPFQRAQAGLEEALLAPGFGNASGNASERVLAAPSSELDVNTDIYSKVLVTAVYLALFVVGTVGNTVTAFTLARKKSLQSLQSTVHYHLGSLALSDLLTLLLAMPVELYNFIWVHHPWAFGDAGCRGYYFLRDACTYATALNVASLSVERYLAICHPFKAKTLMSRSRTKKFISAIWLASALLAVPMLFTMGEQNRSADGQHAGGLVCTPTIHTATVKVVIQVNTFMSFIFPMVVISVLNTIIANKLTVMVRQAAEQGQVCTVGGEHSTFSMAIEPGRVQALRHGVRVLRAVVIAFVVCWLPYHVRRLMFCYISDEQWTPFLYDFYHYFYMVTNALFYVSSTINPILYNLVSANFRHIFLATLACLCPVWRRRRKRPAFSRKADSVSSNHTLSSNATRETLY

Row | Compound | EC50 [µM]
1 | COc1ccccc1C1CCN(c2nc(C3(F)CC3)nc3cnc(N4CC[C@@H](O)C4)cc23)CC1 [Example 197, 1-{2-(1-Fluoro-cyclopropyl)-4-[4-(2-methoxy-phenyl)-piperidin-1-yl]-pyrido[3,4-d]pyrimidin-6-yl}-pyrrolidin-3-ol] | 0.5 to 2
2 | COc1ccccc1C1CCN(c2nc(C3CC3)nc3ccc(N4CC[C@H](OC)C4)cc23)CC1 [Example 174, (S)-2-cyclopropyl-4-(4-(2-methoxyphenyl)piperidin-1-yl)-6-(3-methoxypyrrolidin-1-yl)quinazoline] | 0.5 to 2
3 | COc1ccccc1C1CCN(c2nc(C3(F)CCC3)nc3c(Cl)cc(N(C)CCO)cc23)CC1 [Example 181, 2-((8-chloro-2-(1-fluorocyclobutyl)-4-(4-(2-methoxyphenyl)piperidin-1-yl)quinazolin-6-yl)(methyl)amino)ethanol] | 0.5 to 2
4 | COc1ccccc1C1CCN(c2nc(NC3CCC3)nc3ccc(N(C)CCO)cc23)CC1 [Example 98, 2-((2-(cyclobutylamino)-4-(4-(2-methoxyphenyl)piperidin-1-yl)quinazolin-6-yl)(methyl)amino)ethanol] | > 10
5 | COc1ccccc1C1CCN(c2nc(N(C)C)nc3ccc(N(C)CCO)cc23)CC1 [Example 94] | 0.5 to 2
6 | CN(C)c1ccccc1C1CCN(c2nc(C3(C(F)(F)F)CCC3)nc3ccc(N(C)CCN4CCOCC4)cc23)CC1 [Example 66, [4-[4-(2-dimethylamino-phenyl)-piperidin-1-yl]-2-(1-trifluoromethyl-cyclobutyl)-quinazolin-6-yl]-methyl-(2-morpholin-4-yl-ethyl)-amine] | > 10
7 | CCOC(=O)CN(C)C1CCN(c2ccc3nc(C4CC4)nc(N4CCC(c5ccccc5OC)CC4)c3c2)CC1 [Example 93, [(1-{2-cyclopropyl-4-[4-(2-methoxy-phenyl)-piperidin-1-yl]-quinazolin-6-yl}-piperidin-4-yl)-methyl-amino]-acetic acid ethyl ester] | > 10
8 | CN(C)c1ccc2nc(C3CC3)nc(N3CCN(c4ccccc4N4CCC4)CC3)c2c1 [Example 1, {4-[4-(2-azetidin-1-yl-phenyl)-piperazin-1-yl]-2-cyclopropyl-quinazolin-6-yl}-dimethyl-amine] | 0.5 to 2
9 | COc1cc(F)ccc1C1CCN(c2nc(C3CC3)nc3cc(C)c(N(C)CCO)cc23)CC1 [Example 114, 2-({2-cyclopropyl-4-[4-(4-fluoro-2-methoxy-phenyl)-piperidin-1-yl]-7-methyl-quinazolin-6-yl}-methyl-amino)-ethanol] | 2 to 10
10 | COc1ccccc1C1CCN(c2nc(C3(F)CC3)nc3c(Cl)cc(N4CC[C@H](O)C4)cc23)CC1 (stereo in doubt) [Example 203, 1-{8-Chloro-2-(1-fluoro-cyclopropyl)-4-[4-(2-methoxy-phenyl)-piperidin-1-yl]-quinazolin-6-yl}-pyrrolidin-3-ol] | 2 to 10
11 | COc1ccccc1C1CCN(c2nc(C3(C)CCC3)nc3ccc(N(C)CCO)cc23)CC1 [Example 70, 2-{[4-[4-(2-Methoxy-phenyl)-piperidin-1-yl]-2-(1-methyl-cyclobutyl)-quinazolin-6-yl]-methyl-amino}-ethanol] | 0.5 to 2
12 | COc1ccccc1C1CCN(c2nc(C3(F)CCCC3)nc3ccc(N(C)CCO)cc23)CC1 [Example 72, 2-({2-(1-fluoro-cyclopentyl)-4-[4-(2-methoxy-phenyl)-piperidin-1-yl]-quinazolin-6-yl}-methyl-amino)-ethanol] | 0.5 to 2
13 | CCCN(C)C(=O)Cc1c(C)nc(C2CC2)nc1N1CCC(c2ccccc2OC)CC1 [Example 158, 2-{2-cyclopropyl-4-[4-(2-methoxy-phenyl)-piperidin-1-yl]-6-methyl-pyrimidin-5-yl}-N-methyl-N-propyl-acetamide] | > 10
14 | CN(C)CCN(C)c1ccc2nc(C3CC3)nc(N3CCC(c4ccccc4N4CCC4)CC3)c2c1 [Example 5, N-{4-[4-(2-azetidin-1-yl-phenyl)-piperidin-1-yl]-2-cyclopropyl-quinazolin-6-yl}-N,N′,N′-trimethyl-ethane-1,2-diamine] | 2 to 10
15 | CN(C)c1ccccc1C1CCN(c2nc(C3(F)CCCC3)nc3ccc(N(C)CCN4CCOCC4)cc23)CC1 [Example 73, [4-[4-(2-dimethylamino-phenyl)-piperidin-1-yl]-2-(1-fluoro-cyclopentyl)-quinazolin-6-yl]-methyl-(2-morpholin-4-yl-ethyl)-amine] | 2 to 10
16 | CCCN(C)Cc1ccc2nc(C3CC3)nc(N3CCC(c4ccccc4OC)CC3)c2c1 [Example 85, {2-cyclopropyl-4-[4-(2-methoxy-phenyl)-piperidin-1-yl]-quinazolin-6-ylmethyl}-methyl-propyl-amine] | > 10
17 | COc1ccccc1C1CCN(c2nc(C3CC3)nc(C)c2CC(=O)Nc2ccccc2)CC1 [Example 160] | > 10
18 | COc1ccccc1C1CCN(c2nc(C3(F)CCC3)nc3c(Cl)cc(N4CC[C@H](O)C4)cc23)CC1 [Example 183] | 2 to 10

Row | Compound | EC50 [µM]
19 | COc1ccccc1C1CCN(c2nc(C3CC3)nc3ccc(N4CC[C@@H](OC)C4)cc23)CC1 [Example 83, (R)-2-cyclopropyl-4-(4-(2-methoxyphenyl)piperidin-1-yl)-6-(3-methoxypyrrolidin-1-yl)quinazoline] | < 0.5
20 | COc1ccccc1C1CCN(c2nc(C3(N(C)C)CC3)nc3ccc(N(C)C)cc23)CC1 [Example 19, {2-(1-dimethylamino-cyclopropyl)-4-[4-(2-methoxy-phenyl)-piperidin-1-yl]-quinazolin-6-yl}-dimethyl-amine] | > 10
21 | CCCN(C)c1ccc2nc(C3(N(C)CCC)CC3)nc(N3CCC(c4ccccc4OC)CC3)c2c1 [Example 21, {4-[4-(2-methoxy-phenyl)-piperidin-1-yl]-2-[1-(methyl-propyl-amino)-cyclopropyl]-quinazolin-6-yl}-methyl-propyl-amine] | > 10
22 | CN(C)c1ccccc1C1CCN(c2nc(C3(C)CCC3)nc3ccc(N(C)CCN4CCOCC4)cc23)CC1 [Example 67, [4-[4-(2-dimethylamino-phenyl)-piperidin-1-yl]-2-(1-methyl-cyclobutyl)-quinazolin-6-yl]-methyl-(2-morpholin-4-yl-ethyl)-amine] | > 10
23 | CCN(C)c1ccc2nc(C3CC3)nc(N3CCN(c4ccccc4N4CCC4)CC3)c2c1 [Example 2, {4-[4-(2-azetidin-1-yl-phenyl)-piperazin-1-yl]-2-cyclopropyl-quinazolin-6-yl}-ethyl-methyl-amine] | 0.5 to 2
24 | CCCN(CCC)c1ccc2nc(N(C)C)nc(N3CCC(c4ccccc4OC)CC3)c2c1 [Example 96, 4-(4-(2-methoxyphenyl)piperidin-1-yl)-N2,N2-dimethyl-N6,N6-dipropylquinazoline-2,6-diamine] | > 10
25 | CCCN(C)c1ccc2nc(C3CCC3)nc(N3CCC(c4ccccc4OC)CC3)c2c1 [Example 45, {2-cyclobutyl-4-[4-(2-methoxy-phenyl)-piperidin-1-yl]-quinazolin-6-yl}-methyl-propyl-amine] | > 10
26 | COC1CCCCC1C1CCN(c2nc(C3(F)CC3)nc3ccc(N(C)CCO)cc23)CC1 (stereo not drawn) [Example 189, 2-({2-(1-Fluoro-cyclopropyl)-4-[4-(2-methoxy-cyclohexyl)-piperidin-1-yl]-quinazolin-6-yl}-methyl-amino)-ethanol] | > 10
27 | CN(C)c1ccccc1C1CCN(c2nc(C3(C)CCC3)nc3ccc(N(C)CCO)cc23)CC1 [Example 68, 2-{[4-[4-(2-dimethylamino-phenyl)-piperidin-1-yl]-2-(1-methyl-cyclobutyl)-quinazolin-6-yl]-methyl-amino}-ethanol] | 0.5 to 2
28 | CN(CCN1CCCC1)c1ccc2nc(C3CC3)nc(N3CCC(c4ccccc4N4CCC4)CC3)c2c1 [Example 9, {4-[4-(2-azetidin-1-yl-phenyl)-piperidin-1-yl]-2-cyclopropyl-quinazolin-6-yl}-methyl-(2-pyrrolidin-1-yl-ethyl)-amine] | > 10
29 | COc1ccccc1C1CCN(c2nc(C3CC3)nc3cnc(N(C)CCN4CCOCC4)cc23)CC1 [Example 134, 2-cyclopropyl-4-(4-(2-methoxyphenyl)piperidin-1-yl)-N-methyl-N-(2-morpholinoethyl)pyrido[3,4-d]pyrimidin-6-amine] | 0.5 to 2
30 | CN(C)c1ccccc1C1CCN(c2nc(C3CCCC3)nc3ccc(N(C)CCN4CCOCC4)cc23)CC1 [Example 74, {2-cyclopentyl-4-[4-(2-dimethylamino-phenyl)-piperidin-1-yl]-quinazolin-6-yl}-methyl-(2-morpholin-4-yl-ethyl)-amine] | 2 to 10
31 | COc1ccccc1C1CCN(c2nc(C3CCC3)nc3ccc(N(C)CCN4CCOCC4)cc23)CC1 [Example 46, {2-cyclobutyl-4-[4-(2-methoxy-phenyl)-piperidin-1-yl]-quinazolin-6-yl}-methyl-(2-morpholin-4-yl-ethyl)-amine] | 2 to 10
32 | COc1ccccc1C1CCN(c2nc(C3CC3)nc(C)c2CC(=O)N(C)C)CC1 [Example 157, 2-{2-cyclopropyl-4-[4-(2-methoxy-phenyl)-piperidin-1-yl]-6-methyl-pyrimidin-5-yl}-N,N-dimethyl-acetamide] | > 10
33 | CN(C)c1ccccc1C1CCN(c2nc(C3CC3)nc3cc(F)c(N(C)CCO)cc23)CC1 [Example 120, 2-({2-cyclopropyl-4-[4-(2-dimethylamino-phenyl)-piperidin-1-yl]-7-fluoro-quinazolin-6-yl}-methyl-amino)-ethanol] | < 0.5
34 | COc1ccccc1C1CCN(c2nc(C3(F)CC3)nc3c(Cl)cc(N(C)CCO)cc23)CC1 [Example 201, 2-({8-Chloro-2-(1-fluoro-cyclopropyl)-4-[4-(2-methoxy-phenyl)-piperidin-1-yl]-quinazolin-6-yl}-methyl-amino)-ethanol] | < 0.5
35 | COc1ccccc1C1CCN(c2nc(C3(C)CC3)nc3ccc(N(C)CCN(C)C)cc23)CC1 [Example 23, N-[4-[4-(2-methoxy-phenyl)-piperidin-1-yl]-2-(1-methyl-cyclopropyl)-quinazolin-6-yl]-N,N′,N′-trimethyl-ethane-1,2-diamine] | > 10
36 | CN(C)CCN(C)c1ccc2nc(C3(C)CC3)nc(N3CCC(c4ccccc4N4CCC4)CC3)c2c1 [Example 35, N-[4-[4-(2-azetidin-1-yl-phenyl)-piperidin-1-yl]-2-(1-methyl-cyclopropyl)-quinazolin-6-yl]-N,N′,N′-trimethyl-ethane-1,2-diamine] | > 10
